Drawing on patent US9067898B1, “Isothiazole derivatives as GPR120 agonists for the treatment of type II diabetes” (Janssen Pharmaceutica NV, priority 2014, dated 2015), this text covers EC50 for 15 molecules.

For orientation: EC50 means the midpoint of the concentration-response curve.

For one assay, the target named is T1, Human GPR120 short form (Homo sapiens, UniProt Q5NUL3).
T1 construct: expressed in transfected cells
T1 sequence (Q5NUL3 1-361): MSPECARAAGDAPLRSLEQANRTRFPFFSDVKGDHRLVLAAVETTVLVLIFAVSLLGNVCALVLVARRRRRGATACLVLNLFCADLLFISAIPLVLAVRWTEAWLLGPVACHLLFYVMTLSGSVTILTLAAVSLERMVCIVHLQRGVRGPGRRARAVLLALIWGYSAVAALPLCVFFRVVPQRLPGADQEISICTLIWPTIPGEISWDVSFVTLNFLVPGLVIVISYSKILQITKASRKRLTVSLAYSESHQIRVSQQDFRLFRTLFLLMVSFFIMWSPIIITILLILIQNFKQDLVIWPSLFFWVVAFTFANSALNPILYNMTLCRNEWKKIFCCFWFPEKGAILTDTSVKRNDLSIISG
In words: Human GPR120 calcium flux assay (FLIPR), Procedure Calcium A. Format: cell-based. Conditions: HEK-293 cells expressing human GPR120 short form, 2500 cells/well; read-out: GPR120 Ca2+ Assay A EC50. The text has this:
This in vitro assay serves to assess test compound agonist activity against the short splice variant (SVS with Accession number NM_001195755.1 confirmed by sequencing data) of the GPR120 receptor. The Human Short splice variant #2 (NM_001195755.1) is missing an in-frame coding exon compared to variant 1 (the Human Long splice variant NM_181745.3), resulting in a shorter isoform (GPR120-S) lacking a 16 aa protein segment compared to isoform GPR120-L. The assay platform utilizes HEK-293 cells stably transfected to express the Human GPR120 short form. These cells are first loaded with the Ca^+2 sensitive dye, Fluo-4 NW. Upon stimulation, intracellular released Ca^+2 can bind to the dye and alter its fluorescence intensity. This increase in fluorescence signal, and thus the flux in intracellular [Ca^2+], is detected and quantitated by fluorescence imaging using a FLIPR reader. The effect of the agonist is measured as a function of concentration and used to calculate an EC50 based upon a response curve.
In this procedure 2500 cells/well were employed.
A Human GPR120 clone (Genbank accession number NM_001195755.1) was placed into the pcDNA3.1 mammalian expression vector carrying the neomycin resistance gene. A stable mammalian cell was generated by placing the above clone into a HEK293 background. Clonal cells responding to long chain fatty acids had expression levels of GPR120 confirmed by RT-qPCR. Human HEK-GPR120 cells were cultured in Dulbecco's Modified Eagle's Medium (DMEM)/F12 medium supplemented with 10% fetal bovine serum (FBS), 1% L-Glutamine and 1% penicillin/streptomycin and 0.5 mg/ml G-418. Cells were split 2 times a week to keep the cells in the log-phase growth.
In preparation for the assay, HEK cells stably transfected with Human GPR120 (2.5K cells per well in 25 uL growth medium) were seeded into 384-well plates and then incubated overnight (37° C., 5% CO2). The next day, the media was changed to 20 μL assay buffer and the cell starved for 1 h at 37° C. The dye loading solution (2× dye) was prepared using 10 mL assay buffer, 100 μL of 250 mM probenecid, 1 bottle of Component A, and 20 μl of dye in DMSO. Twenty μL of the 2× dye loading buffer was then added to each well. The plates were incubated at 37° C. for 30 min, then at room temperature for an additional 15 minutes, before performing the assay on FLIPR. Test compounds were prepared in assay buffer (2 uL of cpd+198 uL assay buffer, final DMSO in assay plate is 0.2%) at the desired concentration, more particularly at 100, 50, 25, 12.5, 6.25, 3.125, 1.562, 0.781, 0.391, 0.195, 0.098, 0.049, 0.024 and 0.012 μM.
The assay was performed on a FLIPR plate reader using the following parameters. Baseline was read for 10 seconds at 1 sec intervals. The program was set to transfer 10 μL of ligand from compound plate to cell plate after baseline reading. Aspiration was executed at: 10 μL/sec speed, 4.6 μL height; Dispensing was executed at: 30 μL/sec speed, 45 μL height. After compound addition, each well was read for 300 sec, with measurements collected at 1 sec intervals.
The kinetic data from the FLIPR was based upon a 5 minute window for data collection. The fluorescence of each sample well was used for individual calculations of a normalized RFU value, which was defined as maximum response minus the minimum response. The normalized fluorescence reading (RFU) was calculated as follows: RFU=Fmax−Fmin The data were fitted to a sigmoidal dose-response curve with a variable Hill slope (<2) using nonlinear regression with GraphPad Prism 5.0 to calculate the EC50 values. The Fitting Equation was: Y=Bottom+(Top−Bottom)/(1+10^((Log EC50−X)*HillSlope)), where X is the log of the concentration and Y is the response.
(In general: Calcium flux is commonly read through the fluorescence of an indicator in the cells.)

Assay [1] concerns the target T2, long form of human GPR120 (Homo sapiens, UniProt Q5NUL3).
T2 construct: host or cells: PathHunter CHO-K1 GPR120 β-Arrestin Cell Line
The assay is described as follows: Human GPR120 DiscoveRx PathHunter Beta-Arrestin assay, Procedure β-arrestin A. Conditions: PathHunter CHO-K1 GPR120 β-Arrestin cell line, 3000 cells per well, read-out: hGPR120 β-arrestin A EC50. Format: cell-based. The text has this:
The binding of an agonist (medium/long chain fatty acids or small molecule agonists) to the G-protein-coupled receptor GPR120 activates phospholipase C, leading to release of intracellular Ca^+2 through the generation of inositol 1,4,5-trisphosphate (InsP3 or IP3). GPR120 activation can also trigger intracellular signaling via recruitment of Beta-Arrestin. In the present method, agonist-induced activation of the human GPR120 receptor is monitored through the use of PathHunter CHO-K1 GPR120 Beta-Arrestin Cell Line engineered by DiscoveRx, as detailed below. The cell lines are designed to co-express both the ProLink/Enzyme Donor (PK)-tagged GPCR and the Enzyme […] (EA)-tagged Beta-Arrestin fusion proteins. Upon GPR120 receptor stimulation/activation, the EA-tagged Beta-Arrestin portion is translocated to the tagged receptor, where the two enzyme fragments are brought within close proximity. Under these conditions, these fragments can interact and form an active Beta-gal enzyme complex through Enzyme Fragment Complementation (EFC). This active Beta-gal complex can enzymatically hydrolyse the substrate to produce a detectable light signal; therefore, activation as a function of agonist concentration can be expressed as an EC50 value to determine relative compound activities. This in vitro assay therefore serves to assess compound agonist activity of the GPR120. Procedure β-Arrestin A: In Procedure β-arrestin A, the cell used were PathHunter CHO-K1 GPR120 β-Arrestin Cell Line, expressing the long form of human GPR120 (Genbank accession number NM 181745), with 3000 cells per well. Procedure β-Arrestin B: In Procedure 3-arrestin B the cells used were PathHunter CHO-K1 GPR120S β-Arrestin Cell Line, expressing the short form of the GPR120 receptor (Accession #NM_181745), with 5000 cells/well. Assay Procedure:
The selected CHO-K1 GPR120 β-Arrestin cells were cultured in Ham's F12 media supplemented with 10% fetal bovine serum (FBS), 1% Glutamine, lx p/s, 800 μg/mL G418 and 300 μg/mL Hygromycin B (for selection). Cell stocks were maintained and grown in a sub-confluent state using standard cell culture procedures. The day before the experiment, the cells were harvested with non-enzymatic cell dissociation buffer and re-suspended in complete growth media at the desired concentration. A Corning 384-plate was then seeded with the proper number of cells in a volume of 25 μL, per well. The seeded plates were incubated overnight at 37° C.
On the day of the experiment, the Assay Buffer containing (a) HBSS with Ca^++ and Mg^++, (b) 20 mM HEPES, and (c) 0.1% BSA stabilizer (pH 7.4) was prepared. The growth medium was gently removed from the cell plates and 20 μL of Assay Buffer added to each well. The plate was then incubated at 37° C. for 60 min. Test compounds were serially diluted in Assay Buffer to desired concentrations (more particularly to one or more of the following μM concentrations: 25, 12.5, 6.25, 3.125, 1.5625, 0.78125, 0.390625, 0.1953125, 0.09765625, 0.048828125, 0.024414063, 0.012207031). Five μL of compound dilution was then added to each well and the plate incubated at 37° C. for 90 min. The detection reagents were prepared according to the manufacture's instruction. Twelve μL of the detection reagents were added to each well and the plate incubated at room temperature for 60 min.
The plates were read on an EnVision instrument, using Protocol name: Luminescence, Plate type: 384 Costar, Measurement height: 3 mm, Measurement time: 1 s, Aperture: 384 Plate aperture. The % activity relative to the positive control was calculated using the following equation:
The % Activity values were plotted versus the concentration of test compound and fitted to a sigmoidal dose-response curve with a Hill slope=1 (fixed value) using nonlinear regression with GraphPad Prism 5.0 to calculate the EC50 values. […]

T2 sequence (Q5NUL3 1-377 isoform Q5NUL3-1): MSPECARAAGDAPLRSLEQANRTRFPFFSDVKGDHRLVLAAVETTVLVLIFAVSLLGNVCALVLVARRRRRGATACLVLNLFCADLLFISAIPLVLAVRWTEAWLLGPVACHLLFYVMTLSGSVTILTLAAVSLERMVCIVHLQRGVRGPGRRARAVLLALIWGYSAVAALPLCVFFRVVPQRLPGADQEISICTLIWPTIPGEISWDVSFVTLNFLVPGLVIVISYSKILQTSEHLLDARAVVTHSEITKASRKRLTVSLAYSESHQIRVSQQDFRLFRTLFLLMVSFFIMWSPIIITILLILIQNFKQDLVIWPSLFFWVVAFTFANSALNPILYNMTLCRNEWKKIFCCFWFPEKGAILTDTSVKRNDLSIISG
T2 sequence (P32121 whole entry partner): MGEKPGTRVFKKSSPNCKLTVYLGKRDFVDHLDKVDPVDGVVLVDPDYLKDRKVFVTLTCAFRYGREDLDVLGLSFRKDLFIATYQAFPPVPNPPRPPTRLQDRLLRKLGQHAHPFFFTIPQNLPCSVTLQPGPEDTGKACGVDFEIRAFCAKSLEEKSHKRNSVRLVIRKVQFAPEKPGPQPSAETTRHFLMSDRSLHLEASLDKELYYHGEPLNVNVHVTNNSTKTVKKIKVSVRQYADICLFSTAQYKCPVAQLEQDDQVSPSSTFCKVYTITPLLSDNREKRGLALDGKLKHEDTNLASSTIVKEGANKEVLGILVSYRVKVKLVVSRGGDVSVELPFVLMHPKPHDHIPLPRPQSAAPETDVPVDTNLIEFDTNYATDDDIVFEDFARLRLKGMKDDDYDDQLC

Turning to “3-(4-((3-chloro-5-(4-ethylphenyl)isothiazol-4-yl)methoxy)-2,3,5-trifluorophenyl)propan-1-ol [Cpd 140]”, the concentration for a half-maximal effect (EC50) at Human GPR120 short form turned out to be 200 nM; in assay [1], 116 nM. Turning to “3-(4-((4-(4-ethylphenyl)thiophen-3-yl)methoxy)-3,5-difluorophenyl)propanoic acid [Cpd 53]”, the concentration giving a half-maximal response (EC50) on Human GPR120 short form was determined as 690 nM; in assay [1] it was 210 nM. Take “3-(4-[[2-(4-chlorophenyl)-5-methyl-4-(trifluoromethyl)thiophen-3-yl]methoxy]-3,5-difluorophenyl)propanoic acid [Cpd 40]”: the EC50 was determined as 129 nM on Human GPR120 short form and 650 nM in assay [1]. For `CCc1ccc(-c2ccsc2COc2ccc(CCCO)c(F)c2F)cc1` [Cpd 4, 3-(4-[[3-(4-ethylphenyl)thiophen-2-yl]methoxy]-2,3-difluorophenyl)propan-1-ol], the concentration for a half-maximal effect (EC50) at Human GPR120 short form was 59 nM; in assay [1] it was 261 nM. Turning to `CCc1ccc(-c2cc(Cl)sc2COc2ccc(CCC(=O)O)c(C)c2C)cc1` [Cpd 5, 3-(4-[[5-chloro-3-(4-ethylphenyl)thiophen-2-yl]methoxy]-2,3-dimethylphenyl)propanoic acid], the half-maximal effective concentration (EC50) turned out to be 61 nM at Human GPR120 short form and 191 nM in assay [1].

As for `O=C(O)CCc1ccc(OCc2sc(Cl)cc2-c2ccc(Cl)cc2)c(F)c1F` [Cpd 28, 3-(4-[[5-chloro-3-(4-chlorophenyl)thiophen-2-yl]methoxy]-2,3-difluorophenyl)propanoic acid], the concentration for a half-maximal effect (EC50) in assay [1] is 186 nM. Regarding `OCCCc1ccc(OCc2sc(Cl)cc2-c2ccc(Cl)cc2)c(F)c1F` [Cpd 29, 3-(4-[[5-chloro-3-(4-chlorophenyl)thiophen-2-yl]methoxy]-2,3-difluorophenyl)propan-1-ol], the EC50 in assay [1] came out at 243 nM. As to `Cc1ccc(-c2snc(Cl)c2COc2c(F)cc(CCC(=O)O)cc2F)c(F)c1` [Cpd 77, 3-(4-[[3-chloro-5-(2-fluoro-4-methylphenyl)-1,2-thiazol-4-yl]methoxy]-3,5-difluorophenyl)propanoic acid], in assay [1], the EC50 is 191 nM. `CCc1ccc(-c2nsc(-c3ccccc3)c2COc2ccc(CCC(=O)O)c(C)c2C)cc1` [Cpd 233, 3-(4-[[3-(4-ethylphenyl)-5-phenyl-1,2-thiazol-4-yl]methoxy]-2,3-dimethylphenyl)propanoic acid]: the concentration giving a half-maximal response (EC50) at Human GPR120 short form is 1100 nM.

Consider `COc1ccc(-c2nsc(C(F)(F)F)c2COc2c(F)cc(CCCO)cc2F)cc1` [Cpd 234, 3-(3,5-difluoro-4-[[3-(4-methoxyphenyl)-5-(trifluoromethyl)-1,2-thiazol-4-yl]methoxy]phenyl)propan-1-ol], for which the EC50 in assay [1] was 145 nM. Turning to `Cc1cc(CCC(=O)O)ccc1OCc1c(-c2ccc(Cl)cc2)nsc1C(F)(F)F` [Cpd 235, 3-(4-[[3-(4-chlorophenyl)-5-(trifluoromethyl)-1,2-thiazol-4-yl]methoxy]-3-methylphenyl)propanoic acid], the EC50 in assay [1] was 302 nM.

For the molecule `CCc1ccc(-c2nsc(C(F)(F)F)c2COc2c(C)cc(CCC(=O)O)cc2C)cc1` [Cpd 239, 3-(4-((3-(4-ethylphenyl)-5-(trifluoromethyl)isothiazol-4-yl)methoxy)-3,5-dimethylphenyl)propanoic acid], the EC50 in assay [1] is 203 nM. In the case of `O=C(O)CCc1cc(Br)c(OCc2c(-c3ccc(Cl)cc3)nsc2C(F)(F)F)c(Br)c1` [Cpd 241, 3-(3,5-dibromo-4-[[3-(4-chlorophenyl)-5-(trifluoromethyl)-1,2-thiazol-4-yl]methoxy]phenyl) propanoic acid], the concentration for a half-maximal effect (EC50) on Human GPR120 short form came out at 450 nM.

On to `CCc1ccc(-c2nsc(C(F)(F)F)c2COc2ccc(CCC(=O)O)c(C(F)(F)F)c2C)cc1` [Cpd 242, 3-(4-[[3-(4-ethylphenyl)-5-(trifluoromethyl)-1,2-thiazol-4-yl]methoxy]-3-methyl-2-(trifluoro-methyl)phenyl)propanoic acid], for which the EC50 on Human GPR120 short form was 1290 nM. As to `Cc1c(/C=C/C(=O)O)ccc(OCc2c(-c3ccc(Cl)cc3)nsc2C(F)(F)F)c1C` [Cpd 244, (E)-3-(4-((3-(4-chlorophenyl)-5-(trifluoromethyl)isothiazol-4-yl)methoxy)-2,3-dimethylphenyl)acrylic acid], the EC50 on Human GPR120 short form is above 5000 nM.
